The target in the test is T1, human factor Xa (Homo sapiens, UniProt P00742).
T1 construct: factor Xa, which is formed from the proenzyme factor X
Description: Determination of the factor Xa inhibition (fluorogenic substrate Boc-Ile-Glu-Gly-Arg-AMC). The format is biochemical. The note with it: 15 min preincubation at 22° C., substrate 5 μmol/l, pH 7.4, fluorescence 360/460 nm. As for the experimental part: In order to determine the factor Xa inhibition of the substances listed above, a biochemical test system is set up, in which the conversion of a factor Xa substrate is used to determine the enzymatic activity of human factor Xa. Factor Xa cleaves aminomethylcoumarin, whose fluorescence is measured, from the peptidic substrate. The determinations are carried out in microtitre plates.
Substances to be tested, in various concentrations, are dissolved in dimethyl sulphoxide and incubated for 15 min at 22° C. with human Factor Xa ([…] dissolved in 50 mmol/l of Tris buffer [C,C,C-tris(hydroxymethyl)aminomethane], 100 mmol/l NaCl, 0.1% BSA [bovine serum albumin], pH 7.4). The substrate (5 μmol/l of Boc-Ile-Glu-Gly-Arg-AMC from Bachem) is then added. After an incubation time of 30 min, the sample is excited at a wavelength of 360 nm, and the emission at 460 nm is measured. The measured emissions of the test batches with test substance are compared to the control batches without test substance (only dimethyl sulphoxide instead of test substance in dimethyl sulphoxide), and IC50 values are calculated from the concentration/activity relationships.

Structures can show the parent of a compound that is named as a salt.

The IC50 is the point on the concentration scale where inhibition reaches its midpoint. A lower IC50 goes with greater potency in that assay.

T1 sequence (P00742 235-488 limits assumed): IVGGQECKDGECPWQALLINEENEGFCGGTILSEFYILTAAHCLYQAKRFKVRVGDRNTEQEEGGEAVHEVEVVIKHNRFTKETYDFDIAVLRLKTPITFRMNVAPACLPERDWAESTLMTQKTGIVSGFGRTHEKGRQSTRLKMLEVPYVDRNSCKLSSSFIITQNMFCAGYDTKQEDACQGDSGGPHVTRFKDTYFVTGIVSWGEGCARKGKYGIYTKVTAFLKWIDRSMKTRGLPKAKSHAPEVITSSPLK
T1 sequence (P00742 41-179 partner limits assumed): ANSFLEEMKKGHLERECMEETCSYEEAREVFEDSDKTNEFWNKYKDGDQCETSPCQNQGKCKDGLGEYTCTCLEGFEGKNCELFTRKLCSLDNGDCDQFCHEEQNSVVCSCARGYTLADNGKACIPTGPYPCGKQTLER

In turn, `N=C1OCCN1c1ccc(C2=NOC(CNC(=O)c3ccc(Cl)s3)C2)cc1` (centres unmarked) [Example 1, 5-Chloro-N-({3-[4-(2-imino-1,3-oxazolidin-3-yl)phenyl]-4,5-dihydroisoxazol-5-yl}methyl)thiophene-2-carboxamide] gave an IC50 of 7.9 nM.

`N=C1OCCN1c1ccc(-n2cc(CNC(=O)c3ccc(Cl)s3)c(-c3ccccc3)n2)cc1` [Example 2, 5-Chloro-N-({1-[4-(2-imino-1,3-oxazolidin-3-yl)phenyl]-3-phenyl-1H-pyrazol-4-yl}methyl)thiophene-2-carboxamide hydrochloride] displayed an IC50 of 1.4 nM.

Source of the values: patent publication US20110015241A1, “SUBSTITUTED HETEROCYCLES AND USE THEREOF” (BAYER SCHERING PHARMA AKTIENGESELLSCHAFT, priority 2006, published 2011).
